“Also recorded” adds a separate entry of the source.
Experiments:
[1] = target: T1, hA3AR (Homo sapiens, UniProt P0DMS8); conditions: read-out: Affinity (Ki) hA3; CHO cell membranes; ref Melman et al.[19]; cited from earlier work
T1 sequence (P0DMS8 1-318): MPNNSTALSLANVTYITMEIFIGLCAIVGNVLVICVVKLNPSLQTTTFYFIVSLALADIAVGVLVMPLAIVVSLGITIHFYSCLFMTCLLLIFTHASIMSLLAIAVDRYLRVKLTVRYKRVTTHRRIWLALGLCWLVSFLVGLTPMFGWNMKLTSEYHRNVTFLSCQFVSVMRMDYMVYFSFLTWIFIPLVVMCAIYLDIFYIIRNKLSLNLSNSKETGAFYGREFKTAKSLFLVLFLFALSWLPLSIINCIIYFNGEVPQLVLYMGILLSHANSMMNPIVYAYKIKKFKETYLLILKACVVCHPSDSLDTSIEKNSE

[2] = target: T1, hA3AR; conditions: at 10 µM, relative to 10 µM NECA (=100%); ref Melman et al.[19]; cited from earlier work
[3] = target: T1, hA3AR; assay type: cell-based; conditions: in words, from cyclic AMP assay at 10 µM
[4] = target: hA2AAR (Homo sapiens, UniProt P29274); conditions: read-out: Affinity (Ki) hA2A; HEK293 cell membranes; ref Melman et al.[19]; cited from earlier work
Sequence of hA2AAR (P29274 whole entry): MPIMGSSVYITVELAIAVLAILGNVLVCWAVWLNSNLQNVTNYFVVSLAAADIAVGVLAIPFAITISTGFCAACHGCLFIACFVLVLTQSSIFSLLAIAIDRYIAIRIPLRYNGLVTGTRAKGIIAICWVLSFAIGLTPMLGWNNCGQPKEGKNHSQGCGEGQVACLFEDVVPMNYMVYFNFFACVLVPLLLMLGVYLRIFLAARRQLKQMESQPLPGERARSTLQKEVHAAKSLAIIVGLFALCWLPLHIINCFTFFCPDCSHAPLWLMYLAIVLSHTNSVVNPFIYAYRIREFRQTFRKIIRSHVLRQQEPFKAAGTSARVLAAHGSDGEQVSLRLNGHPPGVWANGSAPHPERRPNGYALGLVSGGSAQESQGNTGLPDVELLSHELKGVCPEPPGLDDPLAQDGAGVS

[5] = target: T2, hA1AR (Homo sapiens, UniProt P30542); conditions: read-out: Affinity (Ki) hA1; CHO cell membranes; ref Melman et al.[19]; cited from earlier work
T2 sequence (P30542 1-326): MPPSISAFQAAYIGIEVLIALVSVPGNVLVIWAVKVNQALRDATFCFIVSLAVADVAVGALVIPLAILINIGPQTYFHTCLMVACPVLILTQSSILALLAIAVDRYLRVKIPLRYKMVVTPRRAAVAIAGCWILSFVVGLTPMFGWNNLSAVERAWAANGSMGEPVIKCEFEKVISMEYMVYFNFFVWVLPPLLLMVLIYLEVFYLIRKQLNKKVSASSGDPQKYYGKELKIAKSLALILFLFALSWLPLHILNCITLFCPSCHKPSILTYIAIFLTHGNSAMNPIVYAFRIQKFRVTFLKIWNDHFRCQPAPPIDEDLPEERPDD

Compound | functional character at the hA3AR [3] | other results
O[C@@H]1[C@H](O)[C@@H]2C[C@@H]2[C@H]1n1cnc2c(NCc3cccc(I)c3)nc(Cl)nc21 [Compound 2a] |  | Ki [1]: 1.44 nM; %Efficacy hA3 [2]: 1.0±3.2%
CCNc1nc(C#Cc2ccccc2)nc2c1ncn2[C@H]1[C@H](O)[C@H](O)[C@@H]2C[C@@H]21 [Compound 8] | antagonists | 
CNc1nc(C#Cc2ccccc2Cl)nc2c1ncn2[C@H]1[C@H](O)[C@H](O)[C@@H]2C[C@@H]21 [Compound 5] | antagonists | 
CONc1nc(C#Cc2ccccc2)nc2c1ncn2[C@H]1[C@H](O)[C@H](O)[C@@H]2C[C@@H]21 [Compound 6] | low-efficacy partial agonists | 
O[C@@H]1[C@H](O)[C@@H]2C[C@@H]2[C@H]1n1cnc2c(NCCc3ccccc3)nc(C#Cc3ccccc3)nc21 [Compound 15] | selective antagonist; also recorded: antagonists | 
CNC(=O)[C@@]12C[C@@H]1[C@@H](n1cnc3c(NCc4cccc(Cl)c4)nc(Cl)nc31)[C@H](O)[C@@H]2O [Compound 1] |  | Ki [4]: 2300 ± 100 nM
OC1C(O)C(n2cnc3c(NCc4cccc(Cl)c4)nc(Cl)nc32)C2CC12 (stereo not shown) [Compound 2b] |  | Ki [4]: 4510 nM; %Efficacy hA3 [2]: 2.9±3.7%; Ki [5]: 3070 nM

More lines, main results first:

functional character at the hA3AR [3] | Compound | other results
low-efficacy partial agonists | O[C@@H]1[C@H](O)[C@@H]2C[C@@H]2[C@H]1n1cnc2c(NCCc3ccccc3)nc(C#Cc3ccccc3Cl)nc21 [Compound 16] | 
antagonists | CCNc1nc(C#Cc2ccccc2Cl)nc2c1ncn2[C@H]1[C@H](O)[C@H](O)[C@@H]2C[C@@H]21 [Compound 9] | 
low-efficacy partial agonists | O[C@@H]1[C@H](O)[C@@H]2C[C@@H]2[C@H]1n1cnc2c(NCc3cccc(Cl)c3)nc(C#Cc3ccccc3Cl)nc21 [Compound 12] | 

From article PMC3491360 (ACS medicinal chemistry letters, 2012)
